# Test results taken from ChEMBL document CHEMBL2429858, “Five new degraded diterpenoids from Trigonostemon xyphophylloides” (Bioorg Med Chem Lett, 2013).
# pIC50: −log10 of the molar value.
# How the values were obtained:
# [1] = tested on: SGC-7901; experiment: Cytotoxicity against human SGC7901 cells after 48 hrs by MTT assay; format: functional, cell-based; details: SGC-7901, 48 h
# [2] = Cytotoxicity against human SPCA1 cells after 48 hrs by MTT assay; format: functional, cell-based; details: SPCA1, 48 h
SMILES,pIC50 [1],pIC50 [2]
CO[C@@]12[C@H](COC(N)=O)C3=C(C(=O)C(C)=C(N)C3=O)N1C[C@@H]1N[C@@H]12 [MITOMYCIN],5.69,5.77
COc1c(O)c(C)cc2c1C1=CC(=O)C(C)(C)C1=CC2=O [TRIGOXYPHIN N],5.30,5.39
